Data from patent EP0042348A1, “Olivacine derivatives and their therapeutical use” (priority 1980, dated 1981).
Like-named read-outs stand apart in the source and are kept apart here.

Legend:
[1] = Toxicity in mice after a single i.p. injection (maximal never-lethal dose); type: in vivo, souris; details: for DL0 (Dose maximale jamais mortelle): mice; for DL0 (i.p.): as printed in the compound cell of the dose-response table; for toxicités générales (facteur d'augmentation): change on hydroxylation at position 10 of the named parent; for augmentation de la toxicité (facteur): fold increase on quaternisation
Excerpt: (§1) En pratique, on a utilisé des souris ayant reçu par voie intrapéritonéale un inoculum de cellules de leucémie L 1210 et ayant été, pour la moitié d'entre elles, soumises 24 heures après ladite inoculation tumorale à une injection intrapéritonéale d'une dose unique de l'un des composés à tester; l'autre moitié des souris a reçu une injection d'un volume identique d'un solvant inactif et servait de série témoin. On a réparti les souris au hasard dans chaque série expérimentale. Une première expérimentation de routine a permis de déterminer la mortalité par toxicité et de fixer ainsi les doses infra-létales.
On a ainsi pu déterminer la mortalité par toxicité sous l'effet d'une injection unique de l'un des composés à différentes doses (doses infra-létales DL 50 et DL 100) et évaluer le taux de survie du groupe d'animaux auxquels on n'avait injecté qu'une dose infra-létale d'un composé selon l'invention.
Pour l'évaluation de l'activité thérapeutique des composés selon l'invention, on a exprimé les doses desdits composés en les rapportant à la dose infra-létale 30 jours, que l'on a posée égale à 1. Cette dose infra-létale s'est en effet avérée plus facile à déterminer pour les composés de l'invention que la DL 10, dont elle est d'ailleurs très voisine et qui est habituellement prise comme référence pour l'évaluation de l'activité thérapeutique de composés à effet antitumoral (voir H.E. Skipper et coll., ouvrages cités).

leucémie L 1210 = assay: Antitumour effect in DBA/2 mice inoculated i.p. with 10^5 L1210 leukaemia cells, single i.p. injection 24 h later; type: in vivo, souris; details: for propriétés antitumorales: change on hydroxylation at position 10 of the named parent; for effet thérapeutique antitumoral: change on quaternisation; for propriétés antitumorales chez l'animal (facteur d'accroissement): fold increase on methoxylation at position 10 of the named parent
Excerpt: as §1
Conformément à la convention en usage dans ce domaine, on considérait comme guéris les animaux qui survivaient plus de 45 jours après l'inoculation de cellules tumorales.
On a calculé le taux de survie à partir d'une analyse statistique des résultats expérimentaux, par comparaison avec les résultats obtenus avec la série témoin, selon les méthodes bien connues de Mann-Whitey et de Wilcoxon; le pourcentage de cellules leucémiques tuées par le traitement réalisé était calculé par la méthode décrite par H.E.Skipper et coll. dans les articles cités plus haut, en prenant pour base, suivant le cas, soit l'augmentation de la survie moyenne en l'absence de survivants soit le pourcentage de survivants.
[…] Après 24 heures, on a fait à une moitié de ces souris une injection unique par voie intrapéritonéale d'une dose variable du composé respectif à tester (éventuellement mis au préalable sous la forme de l'un de ses sels hydrosolubles, si nécessaire), tandis qu'on injectait par la même voie à l'autre moitié des souris un même volume de solvant; cette dernière moitié du groupe de souris servait donc de série témoin. On a réparti les souris au hasard dans chaque série expérimentale.

cellules L1210 = assay: In vitro growth inhibition of L1210 cells (48 h culture); details: for IC50: read-out: DI50 (Dose qui réduit de 50 % la croissance des cellules L1210); for diminution de la cytotoxicité (facteur): fold decrease on quaternisation, versus the non-quaternised base
[2] = dose 0,8 of DL0, single i.p., ILS = T/C x 100
[3] = dose 0,01 of DL0, controls 9,3 ± 0,5 days, 15 mice
[4] = dose 0,1 of DL0, controls 9,3 ± 0,5 days, 15 mice
[5] = dose 0,01 of DL0, controls 9,7 ± 0,9 days, 10 mice
[6] = dose 0,05 of DL0, controls 9,3 ± 0,5 days, 15 mice
[7] = dose 0,5 of DL0, controls 9,3 ± 0,5 days, 15 mice
[8] = dose 0,5 of DL0, controls 9,7 ± 0,9 days, 10 mice
[9] = dose 1 of DL0, controls 9,3 ± 0,5 days, 15 mice
[10] = dose 0,005 of DL0, controls 9,3 ± 0,5 days, 15 mice
[11] = versus the non-quaternised base
[12] = dose 0,1 of DL0, controls 9,2 days, 15 mice
[13] = dose 0,02 of DL0, controls 9,7 ± 0,9 days, 10 mice
[14] = dose 0,02 of DL0, controls 9,2 days, 15 mice
[15] = dose 0,5 of DL0, controls 9,2 days, 15 mice
[16] = dose 1 of DL0, controls 9,7 ± 0,9 days, 10 mice
[17] = dose 1 of DL0, controls 9,2 days, 15 mice

Cc1nccc2c(C)c3[nH]c4ccc(O)cc4c3cc12 [10-hydroxy olivacine]
DL0 (Dose maximale jamais mortelle) [1]: 50 mg/kg
ILS (leucémie L 1210; [2]): 139%
IC50 (cellules L1210; Mus musculus, L1210, 48 h): 20 nM

COc1ccc2[nH]c3c(C)c4ccnc(C)c4cc3c2c1 [10-méthoxy olivacine, reference compound]
DL0 (Dose maximale jamais mortelle) [1]: 150 mg/kg
ILS (leucémie L 1210; dose 0,66 of DL0, single i.p., ILS = T/C x 100): 147%
IC50 (cellules L1210; Mus musculus, L1210, 48 h): 1090 nM

CCN(CC)CC[n+]1ccc2c(C)c3[nH]c4ccc(O)cc4c3cc2c1C [4-β-diéthylaminoéthyl 10-OH olivacinium (acétate)]
DL0 (i.p.) [1]: 4-β -diéthyl-aminoéthyl 10-hydroxy olivacinium (acétate) DL0 (i.p.) = 100 mg
DL0 (Dose maximale jamais mortelle) [1]: 125 mg/kg
% de cellules tumorales tuées (leucémie L 1210; [3]): 99%
ILS (leucémie L 1210; [3]): 128%
survie moyenne en jours des souris traitées (leucémie L 1210; [3]): 11,9 ± 1,1 jours
survivants (leucémie L 1210; [3]): 0/15
% de cellules tumorales tuées (leucémie L 1210; [4]): 99,997%
ILS (leucémie L 1210; [4]): 162%
survie moyenne en jours des souris traitées (leucémie L 1210; [4]): 15,1 ± 1,4 jours
survivants (leucémie L 1210; [4]): 0/15
% de cellules tumorales tuées (leucémie L 1210; [5]): 97%
ILS (leucémie L 1210; [5]): 120%
survie moyenne en jours des souris traitées (leucémie L 1210; [5]): 11,6 ± 1,1 jours
survivants (leucémie L 1210; [5]): 0/10
% de cellules tumorales tuées (leucémie L 1210; [6]): 99,8%
ILS (leucémie L 1210; [6]): 136%
survie moyenne en jours des souris traitées (leucémie L 1210; [6]): 12,7 ± 0,4 jours
survivants (leucémie L 1210; [6]): 1/15
% de cellules tumorales tuées (leucémie L 1210; [7]): ≃99,999%
ILS (leucémie L 1210; [7]): 240%
survie moyenne en jours des souris traitées (leucémie L 1210; [7]): 22,3 ± 4,4 jours
survivants (leucémie L 1210; [7]): 1/15
% de cellules tumorales tuées (leucémie L 1210; [8]): 99,98%
ILS (leucémie L 1210; [8]): 150%
survie moyenne en jours des souris traitées (leucémie L 1210; [8]): 14,5 ± 2 jours
survivants (leucémie L 1210; [8]): 0/10
ILS (leucémie L 1210; [2]): 182%
survivants sur 15 (leucémie L 1210; dose 0,8 of DL0, single i.p., out of 15 mice): 4
% de cellules tumorales tuées (leucémie L 1210; [9]): ≃99,999%
ILS (leucémie L 1210; [9]): 182%
survie moyenne en jours des souris traitées (leucémie L 1210; [9]): 16,9 ± 3,7 jours
survivants (leucémie L 1210; [9]): 4/15
% de cellules tumorales tuées (leucémie L 1210; [10]): 99%
ILS (leucémie L 1210; [10]): 127%
survie moyenne en jours des souris traitées (leucémie L 1210; [10]): 11,8 ± 0,8 jours
survivants (leucémie L 1210; [10]): 0/15
IC50 (cellules L1210; Mus musculus, L1210, 48 h): 236 nM

Cc1nccc2c(C)c3[nH]c4ccccc4c3cc12 [olivacine]
toxicités générales (facteur d'augmentation) [1]: 5
propriétés antitumorales (leucémie L 1210): ne modifie que peu
effet thérapeutique antitumoral (leucémie L 1210): disparition de l'effet thérapeutique antitumoral
propriétés antitumorales chez l'animal (facteur d'accroissement) (leucémie L 1210): 1,3

Acétate de 4-méthyl 10-méthoxy olivacinium
augmentation de la toxicité (facteur) [1, 11]: 1,5
diminution de la cytotoxicité (facteur) (cellules L1210): 1,3

Cc1nccc2c(C)c3[nH]c4ccc(O)cc4c3cc12 [10-hydroxy olivacine (acétate)]
DL0 (i.p.) [1]: 10-hydroxy olivacine (acétate) DL0(i.p.) = 50 mg
ILS (leucémie L 1210; [12]): non significatif
survie moyenne en jours des souris traitées (leucémie L 1210; [12]): 10,9 jours
survivants (leucémie L 1210; [12]): 0/15
ILS (leucémie L 1210; [13]): non significatif
survie moyenne en jours des souris traitées (leucémie L 1210; [13]): 10,5 ± 0,8 jours
survivants (leucémie L 1210; [13]): 0/10
ILS (leucémie L 1210; [14]): non significatif
survie moyenne en jours des souris traitées (leucémie L 1210; [14]): 9,6 jours
survivants (leucémie L 1210; [14]): 0/15
ILS (leucémie L 1210; [15]): non significatif
survie moyenne en jours des souris traitées (leucémie L 1210; [15]): 12,1 jours
survivants (leucémie L 1210; [15]): 0/15
% de cellules tumorales tuées (leucémie L 1210; [16]): 98,98%
ILS (leucémie L 1210; [16]): 148%
survie moyenne en jours des souris traitées (leucémie L 1210; [16]): 14,4 ± 1,3 jours
survivants (leucémie L 1210; [16]): 2/10
ILS (leucémie L 1210; [17]): non significatif
survie moyenne en jours des souris traitées (leucémie L 1210; [17]): 11,8 jours
survivants (leucémie L 1210; [17]): 0/15

Acétate de 4-méthyl 10-hydroxy olivacinium
diminution de la toxicité (facteur) ([1]; fold decrease on quaternisation, versus the non-quaternised base): 2
DL0 (Dose maximale jamais mortelle) [1]: 100 mg/kg
effet thérapeutique antitumoral (leucémie L 1210): n'est pas modifiée
ILS (leucémie L 1210; dose 1 of DL0, single i.p., ILS = T/C x 100): 155%
diminution de la cytotoxicité (facteur) (cellules L1210): 28,1
diminution de la cytotoxicité (facteur) (cellules L1210; listed as 10-hydroxy olivacine quaternarisée): ~30
IC50 (cellules L1210; L1210 cells, versus controls, after 48 h of culture): 562 nM

Acétate de 4-méthyl olivacinium
toxicités générales (facteur d'augmentation) [1]: ne varient pas
augmentation de la toxicité (facteur) [1, 11]: 3,3
propriétés antitumorales (leucémie L 1210): fait par contre apparaître des propriétés antitumorales
propriétés antitumorales chez l'animal (facteur d'accroissement) (leucémie L 1210): 1,7
diminution de la cytotoxicité (facteur) (cellules L1210): 1,4
augmentation de la cytotoxicité (facteur) (cellules L1210; fold increase on hydroxylation at position 10 of the named parent): 4
